# Reference: US9856427B2, “Method to convert fermentation mixture into fuels” (The Regents of the University of California, priority 2011, dated 2018)
# Test system: Clostridium acetobutylicum
# Assay: Toxicity study: growth inhibition and cell viability
# Format: cell-based
# Settings: up to 1:1 volume ratios of extractant to media
# Text: Growth inhibition and cell viability was examined in a study using up to 1:1 volume ratios of extractant to media.
compound,measurement,value
CCCC(=O)OCC(COC(=O)CCC)OC(=O)CCC [glyceryl tributyrate],toxicity to Clostridium acetobutylicum (growth inhibition and cell viability),non-toxic
